Measurements: PubChem BioAssay (NCI)
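Each compound was tested at five concentrations against cells in 96-well plates for 48 hours. GI50 = concentration required for 50% inhibition of growth. TGI is the concentration that stops growth completely.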

Experiments:
Experiment in all cases: NCI tumour cell line growth inhibition, 48 h
786-0 renal = test system: 786-0 renal
A498 renal = test system: A498 renal
A549 NSCLC = test system: A549 NSCLC
ACHN renal = test system: ACHN renal
BT-549 breast = test system: BT-549 breast
CAKI-1 renal = test system: CAKI-1 renal
CCRF-CEM leukemia = test system: CCRF-CEM leukemia
COLO 205 colon = test system: COLO 205 colon
DU-145 prostate = test system: DU-145 prostate
EKVX NSCLC = test system: EKVX NSCLC
HCC-2998 colon = test system: HCC-2998 colon
HCT-116 colon = test system: HCT-116 colon
HCT-15 colon = test system: HCT-15 colon
HL-60(TB) leukemia = test system: HL-60(TB) leukemia
HOP-62 NSCLC = test system: HOP-62 NSCLC
HOP-92 NSCLC = test system: HOP-92 NSCLC
HS 578T breast = test system: HS 578T breast
HT29 colon = test system: HT29 colon
IGROV1 ovarian = test system: IGROV1 ovarian
K-562 leukemia = test system: K-562 leukemia
KM12 colon = test system: KM12 colon
LOX IMVI melanoma = test system: LOX IMVI melanoma
M14 melanoma = test system: M14 melanoma
MALME-3M melanoma = test system: MALME-3M melanoma
MCF7 breast = test system: MCF7 breast
MDA-MB-231 breast = test system: MDA-MB-231 breast
MDA-MB-435 = test system: MDA-MB-435
MOLT-4 leukemia = test system: MOLT-4 leukemia
NCI-H226 lung = test system: NCI-H226 lung
NCI-H23 lung = test system: NCI-H23 lung
NCI-H460 lung = test system: NCI-H460 lung
NCI-H522 lung = test system: NCI-H522 lung
NCI/ADR-RES ovarian = test system: NCI/ADR-RES ovarian
OVCAR-3 ovarian = test system: OVCAR-3 ovarian
OVCAR-4 ovarian = test system: OVCAR-4 ovarian
OVCAR-5 ovarian = test system: OVCAR-5 ovarian
OVCAR-8 ovarian = test system: OVCAR-8 ovarian
PC-3 prostate = test system: PC-3 prostate
RPMI-8226 leukemia = test system: RPMI-8226 leukemia
RXF 393 renal = test system: RXF 393 renal
SF-268 CNS = test system: SF-268 CNS
SF-295 CNS = test system: SF-295 CNS
SF-539 CNS = test system: SF-539 CNS
SK-MEL-2 melanoma = test system: SK-MEL-2 melanoma
SK-MEL-28 melanoma = test system: SK-MEL-28 melanoma
SK-MEL-5 melanoma = test system: SK-MEL-5 melanoma
SK-OV-3 ovarian = test system: SK-OV-3 ovarian
SN12C renal = test system: SN12C renal
SNB-19 CNS = test system: SNB-19 CNS
SNB-75 CNS = test system: SNB-75 CNS
SR leukemia = test system: SR leukemia
SW-620 colon = test system: SW-620 colon
T-47D breast = test system: T-47D breast
TK-10 renal = test system: TK-10 renal
U251 CNS = test system: U251 CNS
UACC-257 melanoma = test system: UACC-257 melanoma
UACC-62 melanoma = test system: UACC-62 melanoma
UO-31 renal = test system: UO-31 renal

Work on NC(=O)c1c(NC(=O)c2ccc(C3CCCCC3)cc2)sc2c1CCC(=O)C2 yielded a GI50 (786-0 renal) of 663 nM, a TGI (786-0 renal) of 2870 nM and a GI50 (A498 renal) of 1990 nM. For the same molecule, the TGI (A498 renal) was 5840 nM, the GI50 (A549 NSCLC) was 419 nM and the TGI (A549 NSCLC) was 6080 nM. The GI50 (ACHN renal) was 164 nM, the TGI (ACHN renal) was 598 nM and the GI50 (BT-549 breast) was 283 nM. The TGI (BT-549 breast) was 1390 nM, the GI50 (CAKI-1 renal) was 248 nM and the TGI (CAKI-1 renal) was 1470 nM. It also gave a GI50 (CCRF-CEM leukemia) of 142 nM, a GI50 (COLO 205 colon) of 208 nM and a TGI (COLO 205 colon) of 650 nM. For the same molecule, the GI50 (DU-145 prostate) was 1730 nM, the TGI (DU-145 prostate) was over 100000 nM and the GI50 (EKVX NSCLC) was 502 nM. For the same molecule, the TGI (EKVX NSCLC) was 3210 nM, the GI50 (HCC-2998 colon) was 1100 nM and the TGI (HCC-2998 colon) was 5410 nM. The GI50 (HCT-116 colon) was 108 nM, the TGI (HCT-116 colon) was 1300 nM and the GI50 (HCT-15 colon) was 155 nM. It also gave a TGI (HCT-15 colon) of 1260 nM, a GI50 (HL-60(TB) leukemia) of 307 nM and a TGI (HL-60(TB) leukemia) of over 30800 nM. For the same molecule, the GI50 (HOP-62 NSCLC) was 1480 nM, the TGI (HOP-62 NSCLC) was 24100 nM and the GI50 (HOP-92 NSCLC) was 246 nM. For the same molecule, the TGI (HOP-92 NSCLC) was 1040 nM, the GI50 (HS 578T breast) was 383 nM and the TGI (HS 578T breast) was 5710 nM. For the same molecule, the GI50 (HT29 colon) was 268 nM, the TGI (HT29 colon) was 1810 nM and the GI50 (IGROV1 ovarian) was 434 nM. It also gave a TGI (IGROV1 ovarian) of 2030 nM, a GI50 (K-562 leukemia) of 122 nM and a TGI (K-562 leukemia) of over 100000 nM. It also gave a GI50 (KM12 colon) of 349 nM, a TGI (KM12 colon) of 5260 nM and a GI50 (LOX IMVI melanoma) of 186 nM. The TGI (LOX IMVI melanoma) was 1010 nM, the GI50 (M14 melanoma) was 371 nM and the TGI (M14 melanoma) was 1870 nM. For the same molecule, the GI50 (MALME-3M melanoma) was 314 nM, the TGI (MALME-3M melanoma) was 1190 nM and the GI50 (MCF7 breast) was 292 nM. The TGI (MCF7 breast) was 2530 nM, the GI50 (MDA-MB-231 breast) was 384 nM and the TGI (MDA-MB-231 breast) was 1750 nM. For the same molecule, the GI50 (MDA-MB-435) was 611 nM, the TGI (MDA-MB-435) was 2170 nM and the GI50 (MOLT-4 leukemia) was 357 nM. The TGI (MOLT-4 leukemia) was over 22400 nM, the GI50 (NCI-H226 lung) was 705 nM and the TGI (NCI-H226 lung) was 2610 nM. The GI50 (NCI-H23 lung) was 314 nM, the TGI (NCI-H23 lung) was 4340 nM and the GI50 (NCI-H460 lung) was 645 nM. It also gave a TGI (NCI-H460 lung) of 3640 nM, a GI50 (NCI-H522 lung) of 227 nM and a TGI (NCI-H522 lung) of 1450 nM. For the same molecule, the GI50 (NCI/ADR-RES ovarian) was 360 nM, the TGI (NCI/ADR-RES ovarian) was 5040 nM and the GI50 (OVCAR-3 ovarian) was 389 nM. It also gave a TGI (OVCAR-3 ovarian) of 2620 nM, a GI50 (OVCAR-4 ovarian) of 377 nM and a TGI (OVCAR-4 ovarian) of 1710 nM. For the same molecule, the GI50 (OVCAR-5 ovarian) was 402 nM, the TGI (OVCAR-5 ovarian) was 1980 nM and the GI50 (OVCAR-8 ovarian) was 380 nM. The TGI (OVCAR-8 ovarian) was over 20200 nM, the GI50 (PC-3 prostate) was 130 nM and the TGI (PC-3 prostate) was 1590 nM. It also gave a GI50 (RPMI-8226 leukemia) of 135 nM, a TGI (RPMI-8226 leukemia) of 596 nM and a GI50 (RXF 393 renal) of 301 nM. It also gave a TGI (RXF 393 renal) of 1190 nM, a GI50 (SF-268 CNS) of 532 nM and a TGI (SF-268 CNS) of 3460 nM. For the same molecule, the GI50 (SF-295 CNS) was 681 nM, the TGI (SF-295 CNS) was 2500 nM and the GI50 (SF-539 CNS) was 211 nM. For the same molecule, the TGI (SF-539 CNS) was 826 nM, the GI50 (SK-MEL-2 melanoma) was 980 nM and the TGI (SK-MEL-2 melanoma) was 3530 nM. It also gave a GI50 (SK-MEL-28 melanoma) of 509 nM, a TGI (SK-MEL-28 melanoma) of 2150 nM and a GI50 (SK-MEL-5 melanoma) of 630 nM. The TGI (SK-MEL-5 melanoma) was 1770 nM, the GI50 (SK-OV-3 ovarian) was 1180 nM and the TGI (SK-OV-3 ovarian) was 5890 nM. It also gave a GI50 (SN12C renal) of 438 nM, a TGI (SN12C renal) of 2830 nM and a GI50 (SNB-19 CNS) of 426 nM. For the same molecule, the TGI (SNB-19 CNS) was 3010 nM, the GI50 (SNB-75 CNS) was 1390 nM and the TGI (SNB-75 CNS) was 3420 nM. It also gave a GI50 (SR leukemia) of 108 nM, a GI50 (SW-620 colon) of 142 nM and a TGI (SW-620 colon) of 1660 nM. For the same molecule, the GI50 (T-47D breast) was 193 nM, the TGI (T-47D breast) was 2340 nM and the GI50 (TK-10 renal) was 373 nM. It also gave a TGI (TK-10 renal) of 2300 nM, a GI50 (U251 CNS) of 246 nM and a TGI (U251 CNS) of 1620 nM. For the same molecule, the GI50 (UACC-257 melanoma) was 725 nM, the TGI (UACC-257 melanoma) was 3230 nM and the GI50 (UACC-62 melanoma) was 276 nM. It also gave a TGI (UACC-62 melanoma) of 1430 nM, a GI50 (UO-31 renal) of 177 nM and a TGI (UO-31 renal) of 690 nM.
